Columns and labels:
CCRF-CEM = experiment: NCI 60 panel growth inhibition (SRB), leukemia; type: cell-based, human; conditions: 10 μM
Protocol: (§1) Screening of cytotoxic activity against a panel of sixty human tumor cell lines The selected compounds by NCI were evaluated for their anticancer activity in a two- stage process. […] Then, the output from the single dose screen is reported as a mean graph. […] Assay protocol. […] For a typical screening experiment, cells are inoculated into 96 well microtiter plates in 100 µL at plating densities ranging from 5000 to 40,000 cells/well depending on the doubling time of individual cell lines. […] After 24 h, two plates of each cell line are fixed in situ with TCA, to represent a measurement of the cell population for each cell line at the time of drug addition (Tz). The experimental drugs are solubilized in dimethyl sulfoxide at 400-fold the desired final maximum test concentration and stored frozen prior to use. At the time of drug addition, an aliquot of frozen concentrate is thawed and diluted to twice the desired final maximum test concentration with complete medium containing 50 µg/mL gentamicin. Additional four, 10-fold or ½ log serial dilutions are made to provide a total of five drug concentrations plus control. […] For adherent cells, the assay is terminated by the addition of cold TCA. […] The supernatant is discarded, and the plates are washed five times with tap water and air dried. […] Using the seven absorbance measurements [time zero, (Tz), control growth, (C), and test growth in the presence of drug at the five concentration levels (Ti)], the percentage growth is calculated at each of the drug concentrations levels. Percentage growth inhibition is calculated as: [(Ti Tz)/(C–Tz)] x 100 for concentrations for which Ti>/=Tz and [(Ti-Tz)/Tz] x 100 for concentrations for which Ti < Tz. Three dose response parameters are calculated for each experimental agent. […] The drug concentration resulting in total growth inhibition (TGI) is calculated from Ti = Tz. […] Values are calculated for each of these three parameters if the level of activity is reached; however, if the effect is not reached or is exceeded, the value for that parameter is expressed as greater or less than the maximum or minimum concentration tested.

HL-60(TB) = experiment: NCI 60 panel growth inhibition (SRB), leukemia; type: cell-based, human; conditions: HL-60(TB), 10 μM
Protocol: as §1

K-562 = experiment: NCI 60 panel growth inhibition (SRB), leukemia; type: cell-based, human; conditions: K-562, 10 μM
Protocol: as §1

MOLT-4 = experiment: NCI 60 panel growth inhibition (SRB), leukemia; type: cell-based, human; conditions: MOLT-4, 10 μM
Protocol: as §1

RPMI-8226 = experiment: NCI 60 panel growth inhibition (SRB), leukemia; type: cell-based, human; conditions: RPMI-8226, 10 μM
Protocol: as §1

SR = experiment: NCI 60 panel growth inhibition (SRB), leukemia; type: cell-based, human; conditions: 10 μM
Protocol: as §1

A549/ATCC = experiment: NCI 60 panel growth inhibition (SRB), non-small cell lung cancer; type: cell-based, human; conditions: 10 μM
Protocol: as §1

EKVX = experiment: as above; type: cell-based, human; conditions: 10 μM
Protocol: as §1

HOP-62 = experiment: as above; type: cell-based, human; conditions: HOP-62, 10 μM
Protocol: as §1

HOP-92 = experiment: as above; type: cell-based, human; conditions: HOP-92, 10 μM
Protocol: as §1

NCI-H226 = experiment: as above; type: cell-based, human; conditions: NCI-H226, 10 μM
Protocol: as §1

NCI-H23 = experiment: as above; type: cell-based, human; conditions: NCI-H23, 10 μM
Protocol: as §1

NCI-H322M = experiment: as above; type: cell-based, human; conditions: 10 μM
Protocol: as §1

NCI-H460 = experiment: as above; type: cell-based, human; conditions: NCI-H460, 10 μM
Protocol: as §1

NCI-H522 = experiment: as above; type: cell-based, human; conditions: NCI-H522, 10 μM
Protocol: as §1

COLO 205 = experiment: NCI 60 panel growth inhibition (SRB), colon cancer; type: cell-based, human; conditions: COLO 205, 10 μM
Protocol: as §1

HCC-2998 = experiment: NCI 60 panel growth inhibition (SRB), colon cancer; type: cell-based, human; conditions: HCC-2998, 10 μM
Protocol: as §1

HCT-116 = experiment: NCI 60 panel growth inhibition (SRB), colon cancer; type: cell-based, human; conditions: HCT-116, 10 μM
Protocol: as §1

HCT-15 = experiment: NCI 60 panel growth inhibition (SRB), colon cancer; type: cell-based, human; conditions: HCT-15, 10 μM
Protocol: as §1

KM12 = experiment: NCI 60 panel growth inhibition (SRB), colon cancer; type: cell-based, human; conditions: KM12, 10 μM
Protocol: as §1

SW-620 = experiment: NCI 60 panel growth inhibition (SRB), colon cancer; type: cell-based, human; conditions: SW-620, 10 μM
Protocol: as §1

SF-268 = experiment: NCI 60 panel growth inhibition (SRB), CNS cancer; type: cell-based, human; conditions: SF-268, 10 μM
Protocol: as §1

SF-295 = experiment: NCI 60 panel growth inhibition (SRB), CNS cancer; type: cell-based, human; conditions: SF-295, 10 μM
Protocol: as §1

SF-539 = experiment: NCI 60 panel growth inhibition (SRB), CNS cancer; type: cell-based, human; conditions: SF-539, 10 μM
Protocol: as §1

SNB-19 = experiment: NCI 60 panel growth inhibition (SRB), CNS cancer; type: cell-based, human; conditions: SNB-19, 10 μM
Protocol: as §1

SNB-75 = experiment: NCI 60 panel growth inhibition (SRB), CNS cancer; type: cell-based, human; conditions: SNB-75, 10 μM
Protocol: as §1

U251 = experiment: NCI 60 panel growth inhibition (SRB), CNS cancer; type: cell-based, human; conditions: U251, 10 μM
Protocol: as §1

LOX IMVI = experiment: NCI 60 panel growth inhibition (SRB), melanoma; type: cell-based, human; conditions: 10 μM
Protocol: as §1

M14 = experiment: NCI 60 panel growth inhibition (SRB), melanoma; type: cell-based, human; conditions: M14, 10 μM
Protocol: as §1

MALME-3M = experiment: NCI 60 panel growth inhibition (SRB), melanoma; type: cell-based, human; conditions: 10 μM
Protocol: as §1

SK-MEL-28 = experiment: NCI 60 panel growth inhibition (SRB), melanoma; type: cell-based, human; conditions: SK-MEL-28, 10 μM
Protocol: as §1

SK-MEL-5 = experiment: NCI 60 panel growth inhibition (SRB), melanoma; type: cell-based, human; conditions: SK-MEL-5, 10 μM
Protocol: as §1

UACC-257 = experiment: NCI 60 panel growth inhibition (SRB), melanoma; type: cell-based, human; conditions: UACC-257, 10 μM
Protocol: as §1

UACC-62 = experiment: NCI 60 panel growth inhibition (SRB), melanoma; type: cell-based, human; conditions: UACC-62, 10 μM
Protocol: as §1

Row | Compound | GI% (CCRF-CEM) [%] | GI% (HL-60(TB)) [%] | GI% (K-562) [%] | GI% (MOLT-4) [%] | GI% (RPMI-8226) [%] | GI% (SR) [%] | GI% (A549/ATCC) [%] | GI% (EKVX) [%] | GI% (HOP-62) | GI% (HOP-92) [%] | GI% (NCI-H226) [%] | GI% (NCI-H23) [%] | GI% (NCI-H322M) [%] | GI% (NCI-H460) | GI% (NCI-H522) [%] | GI% (COLO 205) | GI% (HCC-2998) | GI% (HCT-116) [%] | GI% (HCT-15) [%] | GI% (KM12) [%] | also measured
1 | COc1cccc(-c2nc3ccccc3s2)c1OCC(=O)NN=C1C(=O)Nc2ccccc21 [Compound 9g, 2-(2-(Benzo[d]thiazol-2-yl)-6-methoxyphenoxy)-N′-(2-oxoindolin-3-ylidene)acetohydrazide] | 41.07 | 15.30 | 32.23 | 49.06 | 50.80 | 18.95 | 16.44 | 29.56 | – (GI% < 5%) | 34.60 | 45.16 | 25.24 | 10.24 | – (GI% < 5%) | 33.32 | 25.08% | – (GI% < 5%) | 20.48 | 25.54 | 8.64 | GI% (SW-620): – (GI% < 5%); GI% (SF-268): 5.11%; GI% (SF-295): 29.36%; GI% (SF-539): 9.46%; GI% (SNB-19): 13.10%; GI% (SNB-75): – (GI% < 5%); GI% (U251): 8.36%; GI% (LOX IMVI): 25.54%; GI% (M14): – (GI% < 5%); GI% (MALME-3M): 13.82%; GI% (SK-MEL-28): – (GI% < 5%); GI% (SK-MEL-5): 95.02%; GI% (UACC-257): – (GI% < 5%); GI% (UACC-62): 46.29%; melting point: 246 to 248 °C
2 | O=C(COc1ccccc1-c1nc2ccccc2s1)NN=C1C(=O)Nc2ccc(Br)cc21 [Compound 9f, 2-(2-(Benzo[d]thiazol-2-yl)phenoxy)-N′-(5-bromo-2-oxoindolin-3-ylidene)acetohydrazide] | 21.91 | 29.39 | 22.52 | 36.74 | 29.01 | 43.03 | 29.34 | 19.72 | 74.09% | 51.76 | 106.99 | 40.56 | 17.70 | 18.32% | 51.70 | – (GI% < 5%) | 11.62% | 53.40 | 17.46 | 15.34 | GI% (SW-620): – (GI% < 5%); GI% (SF-268): 45.84%; GI% (SF-295): 32.61%; GI% (SF-539): 110.59%; GI% (SNB-19): 81.08%; GI% (SNB-75): 84.86%; GI% (U251): 86.92%; GI% (LOX IMVI): 59.05%; GI% (M14): 8.00%; GI% (MALME-3M): 55.98%; GI% (SK-MEL-28): – (GI% < 5%); GI% (SK-MEL-5): 43.95%; GI% (UACC-257): 13.04%; GI% (UACC-62): 25.55%; melting point: 261 to 263 °C
3 | CNC(=O)c1nn(C)c2c1C(C)(C)Cc1cnc(Nc3ccc(N4CCN(C)CC4)cc3)nc1-2 [Milciclib, reference compound] | 89.60 | 127.0 | 94.6 | 97.70 | 99.60 | 101.8 | 108 | 94.3 | 109.50% | 96.20 | 87.70 | 97.60 | 84.90 | 92.50% | 129.40 | 180.1% | 89.6% | 99.8 | 96.9 | 99.4 | GI% (SW-620): 88.5%; GI% (SF-268): 92.00%; GI% (SF-295): 84.70%; GI% (SF-539): 128.60%; GI% (SNB-19): 87.7%; GI% (SNB-75): 120.6%; GI% (U251): 91.50%; GI% (LOX IMVI): 94.70%; GI% (M14): 87.5%; GI% (MALME-3M): 108.70%; GI% (SK-MEL-28): 83.80%; GI% (SK-MEL-5): 92.70%; GI% (UACC-257): 114.80%; GI% (UACC-62): 109.5%
